From patent US20030206946A1, “Methods for therapy of connective tissue disease” (priority 2002, published 2003)

Key:
[1] = tested on: adjuvant arthritis, left hind paw (without CFA); assay: Adjuvant arthritis (CFA), Delayed Phase, contralateral left hind paw volume; format: in vivo, Long Evans rats; details: for systematic inhibition effect in delayed phase (left paw), in words: summary of Table 2
Experimental: (§1) A well-ground suspension of killed Mycobacterium tuberculosis (DIFCO, USA; 0.3 mg in 0.1 ml of light mineral oil; Complete Freund's Adjuvant, CFA) was administered into the subplantar region of the right hind paw immediately after first dosing on first day (denoted day 1). Hind paw volume was measured by Plethsmometer (Cat. No. 7150, UGO BASILE, Italy) and Water cell (25 mm diameter, Cat. No. 7157, UGO BASILE, Italy) on day 0 (before CFA treated), 1, 5, 10, and 15 after CFA of right paw (with CFA), and day 0, 14, and 18 of left paw (without CFA); rats were weighed just before first dose and 1 hour after final dose. Right hind paw volume (Acute Phase) was measured 4 hours after CFA treated (denoted as day 1) and day 5, day 10 and day 15 after CFA. The contralateral left hind paw volume (Delayed Phase) was measured at day 14 and day 18. The inflammatory activity in this model was denoted by values calculated during the Acute Phase as well as the Delayed Phase.
(§2) The animal model for connective tissue disease was established according to the report by Winter C A, et al., Arthritis Rheum. 1966, 9:394-404. Groups of 5 Long Evans rats weighing 150±20 g were used. The 10% of phenylbutyrate cream and 1% of trichostatin A ointment at a dose of 200 mg/paw and 10 mg/paw, respectively, were applied topically twice daily for 18 consecutive days. A well-ground suspension of killed Mycobacterium tuberculosis (DIFCO, USA; 0.3 mg in 0.1 ml of light mineral oil; Complete Freund's Adjuvant, CFA) was administered into the subplantar region of the right hind paw immediately after first dosing on first day (denoted day 1). Hind paw volume was measured by Plethsmometer (Cat. No. 7150, UGO BASILE, Italy) and Water cell (25 mm diameter, Cat. No. 7157, UGO BASILE, Italy) on day 0 (before CFA treated), 1, 5, 10, and 15 after CFA of right paw (with CFA), and day 0, 14, and 18 of left paw (without CFA); rats were weighed just before first dose and 1 hour after final dose. Anti-inflammatory activity in this model was denoted by values calculated during the Acute Phase (the right hind paw volume) as well as the Delayed Phase (the contralateral left hind paw volume). For CFA-injected vehicle control rats, animals were also weighed on day 0 and day 18; CFA-injected vehicle control animals generally gain between 20 to 40 g body weight over this time period. A 30% or more reduction in paw volume relative to vehicle treated controls was considered significant.

[2] = tested on: adjuvant arthritis, right hind paw (with CFA); assay: Adjuvant arthritis (CFA), Acute Phase, right hind paw volume; format: in vivo, Long Evans rats
Experimental: as §1, §2

[3] = tested on: p16 and p21 in synovial fibroblasts from adjuvant arthritis; assay: Western blot of p16 and p21 in synovial fibroblasts; format: cell-based, rats; details: phenylbutyrate 2 mM, trichostatin A 200 nM; 12 h
[4] = tested on: p16 in the synovium of connective tissue disease; assay: p16 immunohistochemistry of synovium in adjuvant arthritis; format: in vivo, Long Evans rats; details: treated vs vehicle group
Text: FIGS. 8G-[…] are from lower magnification to higher magnification showing the severe synovial hyperplasia and panus formation in connective tissue disease deteriorating the cartilage and bone of joints (left panel: H&E stain). In contrast, there is no p16 staining in the invasive synovium of the vehicle group when compared to the synovium in the treated group (right panel: immunohistochemistry).

[5] = tested on: synovial fibroblasts from adjuvant arthritis; assay: Proliferation of synovial fibroblasts by 3H-thymidine incorporation; format: cell-based, rats; details: 3H-thymidine present during last 24 hours of culture; relative to control culture
Experimental: (§3) At day 10, synovial samples were obtained from the established adjuvant arthritis rats. The collected synovial tissues were digested with 5 mg/ml collagenase (sigma) and 1.5 mg/ml DNase (sigma), and were passed through a wire mesh to prepare isolated cells. Cells (0.5×10^6) were placed in 10-cm dishes with 10 ml RPMI 1640 medium (Gibco) supplemented with 10% fetal calf serum, 2 mM L-glutamine, 50 U/ml penicillin and […] streptomycin. Cells were detached with trypsin-EDTA solution and passed for subculture when 90% confluency was reached. The synovial cells used were of passage 5. Proliferating synovial fibroblasts from adjuvant arthritis were treated with phenylbutyrate or trichostatin A, and proliferation was determined by incorporation of ^3H-thymidine, which was present during last 24 hours of culture. 4-phenylbutyrate (Merck) dissolved in sterile water with NaOH and adjusted to pH 7.2, or sodium phenylbutyrate (Triple Crown, U.S.A) dissolved in sterile water or trichostatin A (sigma) dissolved in ethanol were used. […] Hyperacetylated histones were detected by use of the antibody that specifically recognizes the hyperacetylated form of histone H3 (upstate biotechnology).

[6] = tested on: acetylated histone H3 in synovial fibroblasts from adjuvant arthritis; assay: Accumulation of acetylated histones in synovial fibroblasts (western blot, immunofluorescence with anti-acetylated H3 antibody); format: cell-based, rats; details: phenylbutyrate 2 mM, trichostatin A 200 nM; 6 h for immunofluorescence
Experimental: as §3, with “biotechnology). […] The results were expressed as percentage value relative to the control culture (no drug addition). […]” for “biotechnology).”

[7] = tested on: inflammation of skin, joints and soft tissues in connective tissue disease; assay: Gross views and histology of paw joints, skin and soft tissues in adjuvant arthritis; format: in vivo, Long Evans rats; details: topical 10% phenylbutyrate cream or 1% trichostatin A ointment vs vehicle
Experimental: as §2, with “A 30% or more reduction in paw volume relative to vehicle treated controls was considered significant.” left out

[8] = tested on: TNF-α in the connective tissues of connective tissue disease; assay: TNF-α immunohistochemistry of connective tissues in adjuvant arthritis; format: in vivo, Long Evans rats; details: treated vs vehicle group
histone deacetylases = details: background statement; cited from earlier work
[9] = Acute Phase, right hind paw volume, topical twice daily x 18 days or PO x 5, parentheses mark 30% or more

| Compound | % Inhibition relative to vehicle treated, Day (14-0) ([1]; Delayed Phase, contralateral ankle joint/left hind paw volume, parentheses mark 30% or more) | % Inhibition relative to vehicle treated, Day (18-14) ([1]; Delayed Phase, contralateral left hind paw volume) [%] | % Inhibition relative to vehicle treated, Day (18-0) ([1]; Delayed Phase, contralateral left hind paw volume, parentheses mark 30% or more) [%] | systematic inhibition effect in delayed phase (left paw), in words [1] | % Inhibition relative to vehicle treated, Day (5-0) [2, 9] | % Inhibition relative to vehicle treated, Day (10-0) [2, 9] | % Inhibition relative to vehicle treated, Day (15-0) [2, 9] [%] | % Inhibition relative to vehicle treated, Day (1-0) ([2]; Acute Phase, unilateral ankle joint/right hind paw volume, topical twice daily x 18 days or PO x 5, parentheses mark 30% or more (significant)) | anti-inflammatory effect in Acute Phase, in words ([2]; right hind paw, summary of Table 2) | upregulation of p16 and p21, cell cycle inhibitors [3] | p16 expression in synovium [4] | growth inhibition of synovial fibroblasts [5] | accumulation of acetylated histones [6] | suppression of connective tissue disease (swelling, pannus, synovial hyperplasia, lymphocyte infiltration), in words [7] | TNF-α staining in connective tissues [8] | concentration range of histone deacetylase inhibition (histone deacetylases) |
| --- | --- | --- | --- | --- | --- | --- | --- | --- | --- | --- | --- | --- | --- | --- | --- | --- |
| C[C@]12CCC(=O)C=C1CC[C@@H]1[C@@H]2[C@@H](O)C[C@@]2(C)[C@H]1CC[C@]2(O)C(=O)CO [Hydrocortisone, hydrocortisone] | (30) % | 20 | 27 | partially shown | (35) % | (39) % | 23 | (35) % | marked inhibition effect of hydrocortisone is shown on day 1; however, the effect reduces after day 10 |  |  |  |  |  |  |  |
| O=C(O)CCCc1ccccc1 [phenylbutyrate, 4-phenylbutyrate] |  |  |  | not significant |  |  |  |  |  | induce upregulation of p16 and p21 | upregulated | dose- and time- dependent growth inhibition | induce an accumulation of acetylated histones | pannus formation is blocked | only small amount of TNF-α was stained in the skin | millimolar concentrations |
| CC(/C=C/C(=O)NO)=C\[C@@H](C)C(=O)c1ccc(N(C)C)cc1 [trichostatin A] |  |  |  | not significant |  |  |  |  |  | induce upregulation of p16 and p21 | upregulates p16 expression | dose- and time- dependent growth inhibition | induce an accumulation of acetylated histones |  | no TNF-α staining in soft tissues | submicromolar range |
